Data reported in PMC10367051, “Comprehensive Mechanistic View of the Hydrolysis of Oxadiazole-Based Inhibitors by Histone Deacetylase 6 (HDAC6)” (ACS Chemical Biology, 2023).

How the values were obtained:
Assay type in all cases: biochemical
[1] = target: T1, HDAC3 (Homo sapiens, UniProt O15379); assay: Fluorometric HDAC inhibition assay, HDAC3; conditions: purified human protein; Ac-Gly-Ala-[Lys-Ac]-AMC substrate 10 μM; 15 min preincubation
T1 construct: TwinStrep-FLAG-HALO (N, cleaved yes); made in house; host or cells: HEK293/T17
T1 sequence (O15379 whole entry): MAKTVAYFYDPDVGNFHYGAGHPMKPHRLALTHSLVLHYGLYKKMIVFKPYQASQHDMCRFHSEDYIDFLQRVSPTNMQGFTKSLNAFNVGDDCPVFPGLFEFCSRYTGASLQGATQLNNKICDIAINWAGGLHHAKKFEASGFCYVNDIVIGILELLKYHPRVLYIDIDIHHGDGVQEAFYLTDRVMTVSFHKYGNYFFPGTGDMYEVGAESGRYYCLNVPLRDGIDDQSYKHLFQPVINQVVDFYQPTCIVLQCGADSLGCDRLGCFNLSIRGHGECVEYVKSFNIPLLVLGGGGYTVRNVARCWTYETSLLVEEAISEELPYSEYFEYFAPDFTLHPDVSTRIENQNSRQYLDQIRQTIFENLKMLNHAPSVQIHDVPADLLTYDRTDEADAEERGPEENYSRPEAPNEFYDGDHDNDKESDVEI
T1 sequence (Q9Y618 389-480 partner limits assumed): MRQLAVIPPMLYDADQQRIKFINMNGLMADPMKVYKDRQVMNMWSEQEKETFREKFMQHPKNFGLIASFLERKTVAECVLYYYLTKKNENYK
Experimental: (§1) Large-scale expression of recombinant human HDACs was carried out as described previously.[32],[37] Briefly, HEK293/T17 cells were transiently transfected with expression pMM222 plasmids comprising N-terminally tagged (TwinStrep-FLAG-HALO tag; Figure S1) HDAC genes using linear poly(ethyleneimine) (PEI, Polysciences Inc.). Cells were harvested three days post-transfection, and cell pellets were resuspended in the lysis buffer (100 mM Tris-HCl, 10 mM NaCl, 5 mM KCl, 2 mM MgCl2, and 10% glycerol at pH 8.0). Cells were disrupted by sonication, cell lysates were cleared by centrifugation, and soluble fusion proteins were first purified by Streptactin affinity chromatography (IBA). For all HDACs but HDACs 1, 10, and 11, the N-terminal tag was cleaved off overnight by the addition of TEV protease (10:1 HDAC/TEV ratio). Size-exclusion chromatography on a Superose 6 column (GE Healthcare Bio-Sciences; running buffer 30 mM HEPES, 140 mM NaCl, 10 mM KCl, 3% glycerol, and 0.25 mM TCEP) was used as the final purification step for all HDAC constructs.
(§2) Optimized fluorometric assays were used to determine inhibition constants of studied compounds against individual HDAC isoforms as described previously.[32] Briefly, reactions were performed in the activity buffer comprising 50 mM HEPES, 140 mM NaCl, and 10 mM KCl at pH 7.4 supplemented with 1 mg mL^–1 bovine serum albumin (BSA), 1 mM tris(2-carboxyethyl)phosphine (TCEP), 10 μM substrates, and optimized concentrations of HDACs. The Ac-Gly-Ala-[Lys-Ac]-7-amino-methylcoumarylamide (AMC) substrate was used to profile HDACs 1, 2, 3, and 6; Boc-[Lys-TFA]-7-amino-methylcoumarylamide was used for HDACs 4, 5, 7, 8, and 9 (both substrates: Bachem); fluorescein-labeled N8-acetylspermidine was used for HDAC10;[32] and an internally quenched TNFα-derived peptide derivative was used for HDAC11.[39] Deacetylation reactions were monitored either by high-performance liquid chromatography (HPLC) (HDAC10) or by quantification of released AMC (λex/λem = 365/440 nm) using a CLARIOstar plate reader (BMG Labtech GmbH).

[2] = target: T2, HDAC4 (Homo sapiens, UniProt P56524); assay: Fluorometric HDAC inhibition assay, HDAC4; conditions: purified human protein; Boc-[Lys-TFA]-AMC substrate 10 μM; 15 min preincubation
T2 construct: TwinStrep-FLAG-HALO (N, cleaved yes); made in house; host or cells: HEK293/T17
T2 sequence (P56524 whole entry): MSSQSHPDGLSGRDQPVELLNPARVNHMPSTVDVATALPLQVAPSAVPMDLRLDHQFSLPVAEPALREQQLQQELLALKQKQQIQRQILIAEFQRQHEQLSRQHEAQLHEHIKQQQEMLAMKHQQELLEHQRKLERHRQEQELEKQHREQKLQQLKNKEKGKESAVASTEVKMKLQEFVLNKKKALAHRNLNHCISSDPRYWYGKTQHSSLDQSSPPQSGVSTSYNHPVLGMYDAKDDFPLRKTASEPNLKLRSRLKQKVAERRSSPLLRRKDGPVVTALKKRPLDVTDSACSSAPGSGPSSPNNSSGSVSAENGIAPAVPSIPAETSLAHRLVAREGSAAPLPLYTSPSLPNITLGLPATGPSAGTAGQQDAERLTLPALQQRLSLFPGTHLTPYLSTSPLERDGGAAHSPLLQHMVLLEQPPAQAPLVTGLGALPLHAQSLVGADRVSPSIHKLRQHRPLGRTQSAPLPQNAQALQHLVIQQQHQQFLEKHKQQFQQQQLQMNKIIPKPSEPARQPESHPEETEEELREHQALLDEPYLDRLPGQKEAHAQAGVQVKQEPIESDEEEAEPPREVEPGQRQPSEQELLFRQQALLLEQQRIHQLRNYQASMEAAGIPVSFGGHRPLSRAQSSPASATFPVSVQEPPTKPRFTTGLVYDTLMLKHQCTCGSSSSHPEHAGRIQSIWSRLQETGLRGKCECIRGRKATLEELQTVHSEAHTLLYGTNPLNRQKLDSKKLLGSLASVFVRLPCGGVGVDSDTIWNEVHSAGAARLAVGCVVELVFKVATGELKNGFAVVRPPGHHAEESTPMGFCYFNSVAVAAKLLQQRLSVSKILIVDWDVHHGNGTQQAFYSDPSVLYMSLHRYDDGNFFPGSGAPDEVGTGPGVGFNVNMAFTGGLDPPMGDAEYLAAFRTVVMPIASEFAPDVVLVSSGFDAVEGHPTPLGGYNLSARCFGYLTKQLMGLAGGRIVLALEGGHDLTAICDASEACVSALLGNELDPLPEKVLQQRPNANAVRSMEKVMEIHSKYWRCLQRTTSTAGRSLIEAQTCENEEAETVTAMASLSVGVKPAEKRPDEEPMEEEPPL
Experimental: as §1, §2

[3] = target: T3, HDAC5 (Homo sapiens, UniProt Q9UQL6); assay: Fluorometric HDAC inhibition assay, HDAC5; conditions: purified human protein; Boc-[Lys-TFA]-AMC substrate 10 μM; 15 min preincubation
T3 construct: TwinStrep-FLAG-HALO (N, cleaved yes); made in house; host or cells: HEK293/T17
T3 sequence (Q9UQL6 whole entry): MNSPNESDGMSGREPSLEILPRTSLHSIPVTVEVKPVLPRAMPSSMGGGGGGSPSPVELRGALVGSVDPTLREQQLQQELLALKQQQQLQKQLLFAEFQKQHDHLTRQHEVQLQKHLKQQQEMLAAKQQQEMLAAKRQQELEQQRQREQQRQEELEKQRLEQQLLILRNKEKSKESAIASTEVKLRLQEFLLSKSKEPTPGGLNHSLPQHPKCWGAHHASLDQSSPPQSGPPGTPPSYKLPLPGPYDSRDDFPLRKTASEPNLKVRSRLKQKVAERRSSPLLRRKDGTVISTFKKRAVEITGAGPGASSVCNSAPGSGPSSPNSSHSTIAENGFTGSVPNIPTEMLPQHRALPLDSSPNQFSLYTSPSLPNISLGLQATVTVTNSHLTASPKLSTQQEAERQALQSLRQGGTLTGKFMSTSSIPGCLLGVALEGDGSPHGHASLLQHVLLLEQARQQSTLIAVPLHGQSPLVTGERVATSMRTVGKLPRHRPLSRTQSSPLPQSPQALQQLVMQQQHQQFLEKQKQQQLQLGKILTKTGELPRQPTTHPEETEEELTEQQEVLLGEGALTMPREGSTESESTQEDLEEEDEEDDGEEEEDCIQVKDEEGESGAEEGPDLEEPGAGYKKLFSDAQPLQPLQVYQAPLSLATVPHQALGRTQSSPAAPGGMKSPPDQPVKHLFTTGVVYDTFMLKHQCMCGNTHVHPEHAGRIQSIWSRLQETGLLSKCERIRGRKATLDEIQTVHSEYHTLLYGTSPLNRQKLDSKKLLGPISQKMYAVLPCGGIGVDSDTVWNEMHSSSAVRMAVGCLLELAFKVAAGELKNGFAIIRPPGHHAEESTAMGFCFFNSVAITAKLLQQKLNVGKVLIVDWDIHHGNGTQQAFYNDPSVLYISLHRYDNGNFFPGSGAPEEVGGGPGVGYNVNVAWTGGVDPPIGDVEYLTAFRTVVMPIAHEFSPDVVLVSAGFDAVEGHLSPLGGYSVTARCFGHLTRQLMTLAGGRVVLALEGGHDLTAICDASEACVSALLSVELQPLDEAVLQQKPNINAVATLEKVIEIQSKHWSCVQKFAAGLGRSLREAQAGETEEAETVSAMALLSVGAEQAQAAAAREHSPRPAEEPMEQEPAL
Experimental: as §1, §2

[4] = target: T4, HDAC7 (Homo sapiens, UniProt Q8WUI4); assay: Fluorometric HDAC inhibition assay, HDAC7; conditions: purified human protein; Boc-[Lys-TFA]-AMC substrate 10 μM; 15 min preincubation
T4 construct: TwinStrep-FLAG-HALO (N, cleaved yes); made in house; host or cells: HEK293/T17
T4 sequence (Q8WUI4 1-952): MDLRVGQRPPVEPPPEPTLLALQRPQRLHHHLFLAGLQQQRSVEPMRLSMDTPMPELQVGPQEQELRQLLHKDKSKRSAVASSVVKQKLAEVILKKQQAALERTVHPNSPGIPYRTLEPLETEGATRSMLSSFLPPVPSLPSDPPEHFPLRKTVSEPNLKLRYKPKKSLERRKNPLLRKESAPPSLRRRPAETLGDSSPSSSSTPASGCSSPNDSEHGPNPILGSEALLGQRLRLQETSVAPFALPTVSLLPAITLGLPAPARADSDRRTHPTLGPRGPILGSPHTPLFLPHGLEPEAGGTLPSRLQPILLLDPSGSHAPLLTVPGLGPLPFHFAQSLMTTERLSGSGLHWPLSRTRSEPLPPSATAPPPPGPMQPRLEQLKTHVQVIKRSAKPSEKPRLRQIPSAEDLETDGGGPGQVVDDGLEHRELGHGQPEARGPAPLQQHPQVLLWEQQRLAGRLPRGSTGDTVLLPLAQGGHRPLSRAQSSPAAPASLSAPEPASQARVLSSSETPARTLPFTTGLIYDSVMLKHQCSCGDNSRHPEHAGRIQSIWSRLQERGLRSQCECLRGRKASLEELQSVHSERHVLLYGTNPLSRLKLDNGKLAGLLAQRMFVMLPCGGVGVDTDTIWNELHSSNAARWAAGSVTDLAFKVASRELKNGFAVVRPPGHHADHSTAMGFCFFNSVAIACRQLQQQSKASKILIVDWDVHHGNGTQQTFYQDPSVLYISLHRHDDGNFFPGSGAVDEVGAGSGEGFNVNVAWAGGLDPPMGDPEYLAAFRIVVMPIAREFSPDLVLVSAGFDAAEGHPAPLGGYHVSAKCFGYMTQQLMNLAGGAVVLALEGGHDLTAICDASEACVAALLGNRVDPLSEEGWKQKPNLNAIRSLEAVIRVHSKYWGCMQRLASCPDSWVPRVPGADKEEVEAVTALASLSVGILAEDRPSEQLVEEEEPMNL
Experimental: as §1, §2

[5] = target: T5, HDAC8 (Homo sapiens, UniProt Q9BY41); assay: Fluorometric HDAC inhibition assay, HDAC8; conditions: purified human protein; Boc-[Lys-TFA]-AMC substrate 10 μM; 15 min preincubation
T5 construct: TwinStrep-FLAG-HALO (N, cleaved yes); made in house; host or cells: HEK293/T17
T5 sequence (Q9BY41 1-377): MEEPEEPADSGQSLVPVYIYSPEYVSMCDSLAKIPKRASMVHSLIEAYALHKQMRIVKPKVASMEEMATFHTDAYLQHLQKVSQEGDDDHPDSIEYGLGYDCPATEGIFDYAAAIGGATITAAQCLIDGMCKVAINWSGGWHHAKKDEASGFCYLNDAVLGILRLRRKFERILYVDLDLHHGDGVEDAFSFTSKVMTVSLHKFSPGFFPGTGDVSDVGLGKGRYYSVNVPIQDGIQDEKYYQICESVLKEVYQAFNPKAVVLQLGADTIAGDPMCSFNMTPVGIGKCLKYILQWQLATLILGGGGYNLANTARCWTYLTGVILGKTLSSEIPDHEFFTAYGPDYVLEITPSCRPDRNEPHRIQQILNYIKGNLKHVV
Experimental: as §1, §2

[6] = target: T6, HDAC11 (Homo sapiens, UniProt Q96DB2); assay: HDAC11 inhibition assay (internally quenched peptide); conditions: purified human protein; internally quenched TNFα-derived peptide substrate; 15 min preincubation
T6 construct: made in house; host or cells: HEK293/T17
T6 sequence (Q96DB2 1-347): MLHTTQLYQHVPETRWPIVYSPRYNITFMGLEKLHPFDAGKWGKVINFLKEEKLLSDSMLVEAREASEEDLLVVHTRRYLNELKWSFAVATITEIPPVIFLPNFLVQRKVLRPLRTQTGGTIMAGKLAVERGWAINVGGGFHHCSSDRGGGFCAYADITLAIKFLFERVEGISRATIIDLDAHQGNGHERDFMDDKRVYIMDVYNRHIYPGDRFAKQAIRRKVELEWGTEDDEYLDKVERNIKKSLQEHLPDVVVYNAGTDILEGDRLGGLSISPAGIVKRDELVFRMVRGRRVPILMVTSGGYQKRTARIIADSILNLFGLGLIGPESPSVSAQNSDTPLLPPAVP
Experimental: as §1, §2

Measured: IC50

CS(=O)(=O)N(Cc1ccc(-c2nnc(C(F)F)o2)cn1)c1cccc(Cl)c1 [compound 8]
> 20 µM: [1] | [2] | [3] | [4] | [5] | [6]

CS(=O)(=O)N(Cc1ccc(-c2nnc(C(F)(F)F)o2)cn1)c1cccc(Cl)c1 [compound 7]
> 20 µM: [1] | [2] | [3] | [4] | [5] | [6]

CS(=O)(=O)N(Cc1ccc(C(=O)NNC(=O)C(F)(F)F)cn1)c1cccc(Cl)c1 [compound 5]
> 20 µM: [2] | [5]

CS(=O)(=O)N(Cc1ccc(C(=O)NN)cn1)c1cccc(Cl)c1 [compound 4]
> 20 µM: [1] | [2] | [3] | [4] | [5] | [6]

CS(=O)(=O)N(Cc1ccc(C(=O)NNC(=O)C(F)F)cn1)c1cccc(Cl)c1 [compound 6]
> 20 µM: [2] | [5]
